Assay results as given in publication PMC9479156 (Frontiers in Pharmacology, 2022).
Like-named read-outs stand apart in the source and are kept apart here.

Legend:
[1] = test system: asexual blood stage P. falciparum NF54 (drug sensitive); assay: SYBR Green I proliferation assay, asexual blood stage Pf NF54; assay type: cell-based; conditions: Plasmodium falciparum, read-out: IC50 NF54
Description: In vitro cultivation of asexual and gametocyte P. falciparum parasites: P. falciparum asexual blood stage parasites were cultivated in human erythrocytes in RPMI-1640 media supplemented with AlbuMax II under sterile conditions and in a hypoxic environment (90% N2, 5% CO2, and 5% O2) at 37°C as described previously ([Coertzen et al., 2018]; [Wong et al., 2019]). Gametocytes were produced from asexual blood stage parasites in a stage-specific manner through induction of cellular stress as described previously ([Reader et al., 2015]; [Coertzen et al., 2018]; [Wong et al., 2019]; [Reader et al., 2022]).
DHA, artesunate, artemether, chloroquine (CQ), and methylene blue (MB) were used as reference drugs. All assay conditions are as previously described ([Coertzen et al., 2018]; [Wong et al., 2019]). […] Dose-responses were determined using a 2-fold serial drug dilution on in vitro 95% ring-stage intraerythrocytic Pf parasites (1% parasitemia, 1% hematocrit) at 37°C under 90% N2, 5% CO2, and 5% O2 atmospheric conditions, detecting SYBR green I fluorescence as a marker for parasite proliferation following a 96 h drug treatment ([Smilkstein et al., 2004]; [Verlinden et al., 2011]). Activity against the Pf drug-sensitive NF54 strain and the multi drug-resistant K1 (resistant to CQ, quinine, pyrimethamine, and cycloguanil), and W2 (resistant to CQ, quinine, pyrimethamine, and cycloguanil) strains was evaluated. […] Data analysis was performed using GraphPad Prism (version 6) software, intra-assay variability was monitored with Z-factors, and acceptable inter-assay reproducibility was determined from the percent coefficient of variation (CV) ([Reader et al., 2015]). […]
Activity was determined using the SYBR Green I based fluorescence assay on asexual blood stages of the NF54 (drug sensitive), K1 and W2 (drug resistant) strains of P. falciparum. […] Also included in Table 1 for direct comparison of activities against celastrol are data for the internal reference standards MB and artemisone recorded at the same time as for celastrol. […]

[2] = test system: asexual blood stage Pf NF54; assay: Fixed-ratio isobole drug combination assay (SYBR Green I); assay type: cell-based, Plasmodium falciparum
Description: The in vitro interactions of celastrol with artemisone and MB was determined using a fixed-ratio isobole analysis on Pf NF54 asexual parasites (SYBR Green I-based fluorescence). […] The fractional inhibitory concentration (FIC) for each drug in the combination was calculated as follows:
FIC = IC50 of drug A in combination with drug B/IC50 of drug A
The paired FIC values for the drugs in each combination were linearly plotted to provide the isobologram. The ΣFIC of FIC of drug A in combination with FIC of drug B was determined by calculating the mean FIC value, to obtain the representative FIC value for the drug combination. Data obtained were analysed in Excel, and sigmoidal dose-response curves and isobolograms were plotted using GraphPad 6.0. Experiments were performed in triplicate, and repeated 3 times.
As previously recorded for each of artemiside and artemisone in combination with MB ([Coertzen et al., 2018]), drug-drug interactions were monitored through evaluation of fractional inhibitory concentration (FIC) as determined by isobolograms. A mean ΣFIC<1.0 represents a synergistic interaction, >1.3 an antagonistic interaction and ΣFIC = 1 an indifferent or additive interaction. Isobologram analysis of the combinations of each of artemisone and MB in combination with celastrol was performed against the asexual stages of Pf NF54 using the SYBR Green I based assay. In Table 3 are shown the calculated FIC values for the independent combinations at each ratio as well as the ∑FIC values for each combination. In Figure 5 are presented the independent isoboles for each drug combination.

[3] = test system: LO2 human normal hepatocytes; assay: Cytotoxicity drug combination (isobole) assay LO2; assay type: cell-based
Description: For the drug combination inhibitory assays, six drug preparations, of which four comprised combinations of either artemiside or artemisone with celastrol in a fixed ratio of 80:20, 60:40, 40:60, and 20:80 were prepared and screened against HepG2 liver hepatocellular carcinoma and LO2 human normal hepatocytes respectively. Two of these six preparations employed each of artemiside, artemisone or celastrol alone at a concentration approximately 5–7 times higher than the IC50 of the individual drug as presented in Table 4. […] Thus, six combinations for artemiside (µM) and celastrol (µM) prepared were 500:0, 400:4, 300:8, 200:12, 100:16, and 0:20, respectively.
As above for the malaria combination assays, a mean ΣFIC<1.0 represents a synergistic interaction, >1.3 represents an antagonistic interaction and ΣFIC = 1 represents an indifferent or additive interaction. Additivity, synergism and antagonism were also be established from the linear plots constructed from the FIC values of each of the drugs. A concave hyperbolic plot indicates synergism, a convex hyperbolic plot indicates an antagonistic interaction, and a straight line indicates an additive interaction. Isobole analysis of the combinations of each of artemiside and artemisone in combination with celastrol was performed against HepG2 and LO2 cells respectively. In Figure 5 is presented the isoboles for each drug combination.
Next, combinations of each of artemiside and artemisone with celastrol were examined, according to the method used to establish additivity/synergism described above. […] Against the normal hepatocyte LO2 cell line, whilst the interaction of artemisone with celastrol was synergistic, that of artemiside was additive. Synergism and additivity were also evident from the linear plots determined from the FIC values of each of the drugs (Table 5 and Figure 6). Thus, synergism is confirmed for combinations of the amino-artemisinins with celastrol against the HepG2 carcinoma cell line, and for artemisone-celastrol against human normal hepatocyte LO2.

[4] = artemisone:celastrol drug ratio 20:80, Pf NF54
[5] = artemisone:celastrol drug ratio 40:60, Pf NF54
[6] = artemisone:celastrol drug ratio 60:40, Pf NF54
[7] = artemisone:celastrol drug ratio 80:20, Pf NF54
[8] = artemisone:celastrol drug ratio 20:80, LO2
[9] = artemisone:celastrol drug ratio 40:60, LO2
[10] = artemisone:celastrol drug ratio 60:40, LO2
[11] = artemisone:celastrol drug ratio 80:20, LO2

Structure (SMILES) | IC50 ([1]; NF54, asexual blood stage, SYBR Green I, 96 h, mean ± SEM, this study) | FIC [2, 4] | FIC [2, 5] | FIC [2, 6] | FIC [2, 7] | FIC [3, 8] | FIC [3, 9] | FIC [3, 10] | FIC [3, 11] | IC50 ([1]; NF54, 96 h) | FIC ([2]; MB:celastrol drug ratio 40:60, Pf NF54) | FIC ([2]; MB:celastrol drug ratio 60:40, Pf NF54) | FIC ([2]; MB:celastrol drug ratio 80:20, Pf NF54) | FIC ([3]; artemiside:celastrol drug ratio 20:80, LO2) | FIC ([3]; artemiside:celastrol drug ratio 40:60, LO2) | FIC ([3]; artemiside:celastrol drug ratio 60:40, LO2) | FIC ([3]; artemiside:celastrol drug ratio 80:20, LO2)
C[C@H]1[C@H](N2CCS(=O)(=O)CC2)O[C@@H]2O[C@@]3(C)CC[C@H]4[C@H](C)CC[C@@H]1[C@@]24OO3 [Artemisone, artemisone] | 2.32 ± 0.76 nM | 0.12 | 0.24 | 0.39 | 0.69 | 0.18 | 0.28 | 0.47 | 0.99 |  |  |  |  |  |  |  | 
CC1=C(O)C(=O)C=C2C1=CC=C1[C@@]2(C)CC[C@@]2(C)[C@@H]3C[C@](C)(C(=O)O)CC[C@]3(C)CC[C@]12C [Celastrol, celastrol] |  | 0.93 | 0.76 | 0.60 | 0.50 | 0.7 | 0.4 | 0.29 | 0.23 | 820 ± 190 nM | 1.02 | 0.72 | 0.41 | 1.2 | 1.56 | 1.03 | 0.48
